Data reported in patent US20260083130A1, “NOVEL SULFONATE BENZAMIDE COMPOUNDS FOR CONTROLLING INVERTEBRATE PESTS” (FMC CORPORATION, priority 2022, published 2026).
Like-named read-outs stand apart in the source and are kept apart here.

Assays:
Format in all cases: in vivo
[1] = test system: cotton melon aphid (Aphis gossypii (Glover)); assay: Test E: control of cotton melon aphid, spray on okra plant; conditions: 144 h; for mortality at 2 ppm: sprayed at 2 ppm; for mortality at 10 ppm: sprayed at 10 ppm
Description: (§1) Test compounds were formulated using a solution containing 10% acetone, 90% water and 300 ppm Activator 90® non-ionic surfactant (Loveland Products, Loveland, Colorado, USA). The formulated compounds were applied in 1 mL of liquid through an atomized nozzle positioned 1.27 cm (0.5 inches) above the top of each test unit. Test compounds were sprayed at the rates indicated, and each test was replicated three times.
For evaluating control of cotton melon aphid (Aphis gossypii (Glover)) through contact and/or systemic means, the test unit consisted of a small open container with a 5-day-old okra plant inside. This was pre-infested with 30-40 insects on a piece of leaf according to the cut-leaf method, and the soil of the test unit was covered with a layer of sand.
Test compounds were formulated and sprayed at 250, 50, 10, and 2 ppm with three replications as described above. After spraying, the test units were maintained in a growth chamber for 6 days at 19° C. and 70% relative humidity. Each test unit was then visually assessed for insect mortality.

[2] = test system: Corn Planthopper (Peregrinus maidis (Ashmead)); assay: Test C: control of Corn Planthopper, spray on corn plant; conditions: 144 h, nymphs, assessed after 6 days; for mortality at 250 ppm: sprayed at 250 ppm; for mortality at 50 ppm: sprayed at 50 ppm
Description: as §1
For evaluating control of Corn Planthopper (Peregrinus maidis (Ashmead)) through contact and/or systemic means, the test unit consisted of a small open container with a 3- to 4-day-old corn (maize) plant inside. White sand was added to the top of the soil prior to application of the test compound.
Test compounds were formulated and sprayed at 250 and 50 ppm with three replications as described above. After spraying of the formulated test compound, the test units were allowed to dry for 1 h before they were post-infested with ˜15-20 nymphs (18-to-21-day-old). A black, screened cap was placed on the top of each test unit, and the test units were held for 6 days in a growth chamber at 22 to 24° C. and 50-70% relative humidity. Each test unit was then visually assessed for insect mortality.

[3] = test system: Green Peach Aphid (Myzus persicae (Sulzer)); assay: Test D: control of Green Peach Aphid, spray on radish plant; conditions: 144 h, assessed after 6 days; for mortality at 250 ppm: sprayed at 250 ppm
Description: as §1
For evaluating control of Green Peach Aphid (Myzus persicae (Sulzer)) through contact and/or systemic means, the test unit consisted of a small open container with a 12- to 15-day-old radish plant inside. Prior to compound application, each test unit was pre-infested by placing on a leaf of the test plant 30-40 aphids on a piece of leaf excised from a culture plant (cut-leaf method). The aphids moved onto the test plant as the leaf piece desiccated. After pre-infestation, the soil of the test unit was covered with a layer of sand.
Test compounds were formulated and sprayed at 250 and 50 ppm with three replications as described above. After spraying of the formulated test compound, each test unit was allowed to dry for 1 hour and then a black, screened cap was placed on top. The test units were held for 6 days in a growth chamber at 19-21° C. and 50-70% relative humidity. Each test unit was then visually assessed for insect mortality.

[4] = sprayed at 50 ppm, assessed after 6 days, read-out: mortality
[5] = sprayed at 250 ppm, assessed after 6 days, read-out: mortality

CC(NC(=O)c1cc(OS(=O)(=O)C(F)(F)F)cc(C(F)(F)F)c1)c1ncnn1-c1ncccn1 (stereo not drawn) [Compound 2, 3-[[[1-[1-(2-Pyrimidinyl)-1H-1,2,4-triazol-5-yl]ethyl]amino]carbonyl]-5-(trifluoromethyl)phenyl 1,1,1-trifluoromethanesulfonate]
≥ 80%: mortality at 2 ppm ([1]; assessed after 6 days) | mortality at 10 ppm ([1]; assessed after 6 days) | mortality at 50 ppm [1, 4] | mortality at 250 ppm [1, 5]

CC(NC(=O)c1cccc(OS(=O)(=O)C(F)(F)F)c1)c1ncnn1-c1ncccn1 (stereo not drawn) [Compound 3, 3-[[[1-[1-(2-Pyrimidinyl)-1H-1,2,4-triazol-5-yl]ethyl]amino]carbonyl]phenyl 1,1,1-trifluoromethanesulfonate]
≥ 80%: mortality at 50 ppm [1, 4] | mortality at 250 ppm [1, 5] | mortality at 250 ppm [2]

CC(NC(=O)c1cc(Cl)cc(OS(=O)(=O)C(F)(F)F)c1)c1ncnn1-c1ncccn1 (stereo not drawn) [Compound 4, 3-Chloro-5-[[[1-[1-(2-pyrimidinyl)-1H-1,2,4-triazol-5-yl]ethyl]amino]carbonyl]phenyl 1,1,1-trifluoromethanesulfonate]
≥ 80%: mortality at 2 ppm ([1]; assessed after 6 days) | mortality at 10 ppm ([1]; assessed after 6 days) | mortality at 50 ppm [1, 4] | mortality at 250 ppm [1, 5] | mortality at 50 ppm ([3]; sprayed at 50 ppm) | mortality at 250 ppm [3] | mortality at 250 ppm [2]

CC(NC(=O)c1cccc(OS(=O)(=O)c2ccccc2)c1)c1ncnn1-c1ncccn1 (stereo not drawn) [Compound 6, 3-[(Phenylsulfonyl)oxy]-N-[1-[1-(2-pyrimidinyl)-1H-1,2,4-triazol-5-yl]ethyl]benzamide]
≥ 80%: mortality at 250 ppm [1, 5]

CC(NC(=O)c1cccc(OS(=O)(=O)C(F)F)c1)c1ncnn1-c1ncccn1 (stereo not drawn) [Compound 7, 3-[[[1-[1-(2-Pyrimidinyl)-1H-1,2,4-triazol-5-yl]ethyl]amino]carbonyl]phenyl 1,1-difluoromethanesulfonate]
≥ 80%: mortality at 50 ppm [1, 4] | mortality at 250 ppm [1, 5]

C[C@@H](NC(=O)c1cc(Cl)cc(OS(=O)(=O)C(F)(F)F)c1)c1ncnn1-c1ncccn1 [Compound 9, 3-Chloro-5-[[[1-[1-(2-pyrimidinyl)-1H-1,2,4-triazol-5-yl]ethyl]amino]carbonyl]phenyl 1,1,1-trifluoromethanesulfonate; (+) enantiomer]
≥ 80%: mortality at 50 ppm [1, 4] | mortality at 250 ppm [1, 5] | mortality at 250 ppm [3] | mortality at 50 ppm [2] | mortality at 250 ppm [2]

CC(c1ncnn1-c1ncccn1)N(CC1CC1)C(=O)c1cc(Cl)cc(OS(=O)(=O)C(F)(F)F)c1 (stereo not drawn) [Compound 10, 3-Chloro-5-[[(cyclopropylmethyl)[1-[1-(2-pyrimidinyl)-1H-1,2,4-triazol-5-yl]ethyl]amino]carbonyl]phenyl 1,1,1-trifluoromethanesulfonate]
≥ 80%: mortality at 2 ppm ([1]; assessed after 6 days) | mortality at 10 ppm ([1]; assessed after 6 days) | mortality at 50 ppm [1, 4] | mortality at 250 ppm [1, 5] | mortality at 50 ppm [2] | mortality at 250 ppm [2]

CC(c1ncnn1-c1ncccn1)N(CC1CC1)C(=O)c1cc(OS(=O)(=O)C(F)(F)F)cc(C(F)(F)F)c1 (stereo not drawn) [Compound 11, 3-[[(Cyclopropylmethyl)[1-[1-(2-pyrimidinyl)-1H-1,2,4-triazol-5-yl]ethyl]amino]carbonyl]-5-(trifluoromethyl)phenyl 1,1,1-trifluoromethanesulfonate]
≥ 80%: mortality at 2 ppm ([1]; assessed after 6 days) | mortality at 10 ppm ([1]; assessed after 6 days) | mortality at 50 ppm [1, 4] | mortality at 250 ppm [1, 5] | mortality at 250 ppm [3] | mortality at 50 ppm [2] | mortality at 250 ppm [2]

C[C@H](NC(=O)c1cc(OS(=O)(=O)C(F)(F)F)cc(C(F)(F)F)c1)c1ncnn1-c1ncccn1 [Compound 12, 3-[[[(1S)-[1-(2-Pyrimidinyl)-1H-1,2,4-triazol-5-yl]ethyl]amino]carbonyl]-5-(trifluoromethyl)phenyl 1,1,1-trifluoromethanesulfonate; (−) enantiomer]
≥ 80%: mortality at 250 ppm [1, 5]

C[C@@H](NC(=O)c1cc(OS(=O)(=O)C(F)(F)F)cc(C(F)(F)F)c1)c1ncnn1-c1ncccn1 [Compound 13, (R)3-[[[1-[1-(2-Pyrimidinyl)-1H-1,2,4-triazol-5-yl]ethyl]amino]carbonyl]-5-(trifluoromethyl)phenyl 1,1,1-trifluoromethanesulfonate; (+) enantiomer]
≥ 80%: mortality at 2 ppm ([1]; assessed after 6 days) | mortality at 10 ppm ([1]; assessed after 6 days) | mortality at 50 ppm [1, 4] | mortality at 250 ppm [1, 5] | mortality at 250 ppm [3] | mortality at 50 ppm [2] | mortality at 250 ppm [2]

CC(NC(=O)c1cc(F)cc(OS(=O)(=O)C(F)(F)F)c1)c1ncnn1-c1ncccn1 (stereo not drawn) [Compound 14, 3-Fluoro-5-[[[1-[1-(2-pyrimidinyl)-1H-1,2,4-triazol-5-yl]ethyl]amino]carbonyl]phenyl 1,1,1-trifluoromethanesulfonate]
≥ 80%: mortality at 50 ppm [1, 4] | mortality at 250 ppm [1, 5]

CC(NC(=O)c1cc(Br)cc(OS(=O)(=O)C(F)(F)F)c1)c1ncnn1-c1ncccn1 (stereo not drawn) [Compound 15, 3-Bromo-5-[[[1-[1-(2-pyrimidinyl)-1H-1,2,4-triazol-5-yl]ethyl]amino]carbonyl]phenyl 1,1,1-trifluoromethanesulfonate]
≥ 80%: mortality at 50 ppm [1, 4] | mortality at 250 ppm [1, 5]

COC(=O)N(C(=O)c1cc(Cl)cc(OS(=O)(=O)C(F)(F)F)c1)C(C)c1ncnn1-c1ncccn1 (stereo not drawn) [Compound 20]
≥ 80%: mortality at 50 ppm [1] | mortality at 250 ppm [1]

CCN(C(=O)c1cc(OS(=O)(=O)C(F)(F)F)cc(C(F)(F)F)c1)C(C)c1ncnn1-c1ncccn1 (stereo not drawn) [Compound 27, 3-[[ethyl[1-[1-(2-pyrimidinyl)-1H-1,2,4-triazol-5-yl]ethyl]amino]carbonyl]-5-(trifluoromethyl)phenyl 1,1,1-trifluoromethanesulfonate]
≥ 80%: mortality at 50 ppm [1, 4] | mortality at 250 ppm [1, 5] | mortality at 250 ppm [2]

CC(NC(=O)c1cc(OS(=O)(=O)CC(F)(F)F)cc(C(F)(F)F)c1)c1ncnn1-c1ncccn1 (stereo not drawn) [Compound 28]
≥ 80%: mortality at 250 ppm [1, 5]

CC(NC(=O)c1cc(OS(=O)(=O)C(F)F)cc(C(F)(F)F)c1)c1ncnn1-c1ncccn1 (stereo not drawn) [Compound 38]
≥ 80%: mortality at 250 ppm [1, 5]

CC(NC(=O)c1cc(Cl)cc(OS(=O)(=O)C(F)F)c1)c1ncnn1-c1ncccn1 (stereo not drawn) [Compound 39]
≥ 80%: mortality at 250 ppm [1, 5]

CC(NC(=O)c1cc(OS(=O)(=O)C(F)(F)F)cc([N+](=O)[O-])c1)c1ncnn1-c1ncccn1 (stereo not drawn) [Compound 46]
≥ 80%: mortality at 50 ppm [1, 4] | mortality at 250 ppm [1, 5]

COC(=O)N(C(=O)c1cc(OS(=O)(=O)C(F)(F)F)cc(C(F)(F)F)c1)C(C)c1ncnn1-c1ncccn1 (stereo not drawn) [Compound 48]
≥ 80%: mortality at 50 ppm [1] | mortality at 250 ppm [1]

CC(NC(=O)c1cc(Cl)cc(OS(=O)(=O)CC(F)(F)F)c1)c1ncnn1-c1ncccn1 (stereo not drawn) [Compound 52]
≥ 80%: mortality at 250 ppm [1, 5]
